Assay results reported in ChEMBL document CHEMBL1144740, “Structural characterization and DPPH radical scavenging activity of an arabinoglucogalactan from Panax notoginseng root” (J Nat Prod, 2008).

Assay: DPPH radical scavenging activity
Assay type: ADME

| SMILES | SC50 |
| --- | --- |
| OC[C@@H](O)[C@@H]1O[C@H]2O[C@@H]3[C@@H](O)[C@H](O[C@@H]4[C@@H](O)[C@H](O[C@@H]5[C@@H](O)[C@H](O[C@@H]6[C@@H](O)[C@H](O[C@@H]7[C@@H](O)[C@H](O[C@@H]8[C@@H](O)[C@H](O[C@@H]9[C@@H](O)[C@H](O[C@@H]1[C@H]2O)O[C@H]9[C@H](O)CO)O[C@H]8[C@H](O)CO)O[C@H]7[C@H](O)CO)O[C@H]6[C@H](O)CO[C@@H]1O[C@H](CO)[C@@H](O[C@@H]2O[C@H](CO)[C@@H](O)[C@@H]2O)[C@H](O)[C@H]1O)O[C@H]5[C@H](O)CO)O[C@H]4[C@H](O)CO)O[C@H]3[C@H](O)CO | 11.72 µg/mL |
| O=C1O[C@H]([C@@H](O)CO)C(O)=C1O [ASCORBIC ACID] | 5.24 µg/mL |
